Measurements published in the supplement of paper PMC10307832.

How the values were obtained:
Assay in all cases: relative viability (nuclei count vs DMSO), 5 days (fraction); higher = more cells survive
BI-2536 + Luminespib = compound: CC[C@@H]1C(=O)N(C)c2cnc(Nc3ccc(C(=O)NC4CCN(C)CC4)cc3OC)nc2N1C1CCCC1 [BI-2536] + CCNC(=O)c1noc(-c2cc(C(C)C)c(O)cc2O)c1-c1ccc(CN2CCOCC2)cc1 [Luminespib] (partner 0.01 µM)
Summary of the method: (§1)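 Medians of duplicate plates are given as relative viability. That measure is the nuclei count in treated wells divided by the count in vehicle wells. Counts were taken on 4× images of lung cancer cell lines in 1536-well plates, 5 days after pin-tool dosing the day after seeding with one drug alone or a fixed anchor-drug dose plus five library-drug doses (not always all listed) in √10 steps.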

BI-2536 + AZD7762 = compound: CC[C@@H]1C(=O)N(C)c2cnc(Nc3ccc(C(=O)NC4CCN(C)CC4)cc3OC)nc2N1C1CCCC1 [BI-2536] + NC(=O)Nc1cc(-c2cccc(F)c2)sc1C(=O)N[C@H]1CCCNC1 [AZD7762] (partner 0.2 µM)
Summary of the method: as §1

BI-2536 + Lapatinib = compound: CC[C@@H]1C(=O)N(C)c2cnc(Nc3ccc(C(=O)NC4CCN(C)CC4)cc3OC)nc2N1C1CCCC1 [BI-2536] + CS(=O)(=O)CCNCc1ccc(-c2ccc3ncnc(Nc4ccc(OCc5cccc(F)c5)c(Cl)c4)c3c2)o1 [Lapatinib] (partner 2 µM)
Summary of the method: as §1

NPK76-II-72-1 + OSI-027 = compound: CC1CC(=O)N(C2=CN=C(N=C2N1C3CCCC3)NC4=C(C=C(C=C4)C(=O)NC5CCN(CC5)C)OC)C [NPK76-II-72-1] + COc1cccc2cc(-c3nc([C@H]4CC[C@H](C(=O)O)CC4)n4ncnc(N)c34)[nH]c12 [OSI-027] (partner 0.5 µM)
Summary of the method: as §1

Cell Line	relative viability (BI-2536 + Luminespib; first compound 0.01 µM)	relative viability (BI-2536 + Luminespib; first compound 0.03162 µM)	relative viability (BI-2536 + Luminespib; first compound 0.1 µM)	relative viability (BI-2536 + Luminespib; first compound 0.3162 µM)	relative viability (BI-2536 + Luminespib; first compound 1 µM)	relative viability (BI-2536 + AZD7762; first compound 0.01 µM)	relative viability (BI-2536 + AZD7762; first compound 0.03162 µM)	relative viability (BI-2536 + AZD7762; first compound 0.1 µM)	relative viability (BI-2536 + AZD7762; first compound 0.3162 µM)	relative viability (BI-2536 + AZD7762; first compound 1 µM)	relative viability (BI-2536 + Lapatinib; first compound 0.01 µM)	relative viability (BI-2536 + Lapatinib; first compound 0.03162 µM)	relative viability (BI-2536 + Lapatinib; first compound 0.1 µM)	relative viability (BI-2536 + Lapatinib; first compound 0.3162 µM)	relative viability (BI-2536 + Lapatinib; first compound 1 µM)	relative viability (NPK76-II-72-1 + OSI-027; first compound 0.01 µM)	relative viability (NPK76-II-72-1 + OSI-027; first compound 0.03162 µM)	relative viability (NPK76-II-72-1 + OSI-027; first compound 0.1 µM)	relative viability (NPK76-II-72-1 + OSI-027; first compound 0.3162 µM)	relative viability (NPK76-II-72-1 + OSI-027; first compound 1 µM)
PC-14	0.116	0.171	0.111	0.107	0.108	0.41	0.395	0.32	0.0493	0.0531	0.323	0.408	0.342	0.0746	0.0774	0.778	0.935	0.981	0.667	1.08
NCI-H2347		0.517	0.41	0.378	0.272	0.647	0.643	0.73	0.545	0.325	0.786	0.986	0.769	0.413	0.621	0.407	0.502	0.466	0.366	0.274
NCI-H1793	0.201	0.167	0.137	0.168	0.14	0.45	0.519	0.102	0.128	0.123	0.581	0.507	0.256		0.193	0.268	0.322	0.258	0.27	0.311
EKVX	0.911	0.955	0.8	0.292	0.123	0.613	0.877	0.63	0.614	0.276	0.199	0.205	0.205	0.142	0.117	0.66	0.783	0.501	0.649	0.821
HOP-62	0.949	0.84	0.419	0.121	0.188	0.505	0.653	0.235	0.15	0.101	0.965	0.99	0.705	0.142	0.135	0.784	0.919	0.917	0.722	0.978
NCI-H2126	0.855	0.512	0.392	0.278	0.32	1.01	1.09	0.855	0.428	0.223	0.782	0.689	0.725	0.619	0.267	0.716	0.734	0.678	0.738	0.796
NCI-H358	0.414	0.283	0.398	0.127	0.0998	0.64	0.408	0.266	0.153	0.177	0.454	0.312	0.174	0.161	0.182	0.703	0.812	1		0.916
EPLC-272H	0.293	0.166	0.153	0.102	0.0894	0.198	0.231	0.0832	0.0551	0.0884	0.894	0.828		0.483	0.11	0.307		0.287	0.235	0.305
